Test results as given in ChEMBL document CHEMBL4371007, “Biased Ligands of G Protein-Coupled Receptors (GPCRs): Structure-Functional Selectivity Relationships (SFSRs) and Therapeutic Potential” (J Med Chem, 2018).
Where a SMILES comes first, the peptide text is derived from it. Bridges are numbered along the chain shown (N, C = ends). [ ]: non-standard residue; d: D form. The star is where a group is joined. X1 = C[C@@H](NC(=O)[C@@H]1CCCN1C(=O)[C@H](Cc1cnc[nH]1)NC[C@H](CCCCN)N*)C(=O)O; Sar = CNCC(=O)O

Legend:
[1] = molecular target: Metabotropic glutamate receptor 5 (Rattus norvegicus, UniProt P31424); experiment: Positive allosteric modulation of rat mGlu5 receptor expressed in HEK293 cells assessed as increase in calcium mobilization; format: functional, cell-based
[2] = molecular target: T1, Type-1 angiotensin II receptor (Homo sapiens, UniProt P30556); experiment: Agonist activity at human AT1 receptor assessed as increase in beta-arrestin recruitment by chemiluminescent assay
T1 sequence (P30556 whole entry): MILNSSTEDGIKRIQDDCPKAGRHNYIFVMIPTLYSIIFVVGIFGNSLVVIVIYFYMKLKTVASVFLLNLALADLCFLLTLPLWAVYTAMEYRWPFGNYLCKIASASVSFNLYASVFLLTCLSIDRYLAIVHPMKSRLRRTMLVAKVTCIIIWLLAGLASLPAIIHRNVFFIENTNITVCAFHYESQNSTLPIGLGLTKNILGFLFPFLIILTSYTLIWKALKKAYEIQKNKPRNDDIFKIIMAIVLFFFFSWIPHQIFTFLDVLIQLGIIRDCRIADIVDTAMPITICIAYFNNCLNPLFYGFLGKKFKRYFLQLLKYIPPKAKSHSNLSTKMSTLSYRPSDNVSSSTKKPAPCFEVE

Apelin receptor [3] = molecular target: T2, Apelin receptor (Homo sapiens, UniProt P35414); experiment: Agonist activity at human APJ receptor assessed as increase in beta-arrestin recruitment
T2 sequence (P35414 whole entry): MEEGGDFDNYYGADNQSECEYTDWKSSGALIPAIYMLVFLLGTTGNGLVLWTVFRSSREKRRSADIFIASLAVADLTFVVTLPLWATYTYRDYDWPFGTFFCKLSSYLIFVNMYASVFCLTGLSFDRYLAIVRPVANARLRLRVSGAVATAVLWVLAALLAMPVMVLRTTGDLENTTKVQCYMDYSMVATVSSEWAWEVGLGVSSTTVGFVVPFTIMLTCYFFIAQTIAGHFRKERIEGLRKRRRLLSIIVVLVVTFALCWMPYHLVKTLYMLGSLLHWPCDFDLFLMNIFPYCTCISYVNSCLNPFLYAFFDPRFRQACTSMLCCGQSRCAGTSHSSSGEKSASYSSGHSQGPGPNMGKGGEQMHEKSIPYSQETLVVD

Apelin receptor [4] = molecular target: T2, Apelin receptor; experiment: Agonist activity at human APJ receptor by saphenous vein contraction assay
Apelin receptor [5] = molecular target: T2, Apelin receptor; experiment: Induction of human APJ receptor internalization by cell based assay
CHO = experiment: Cytoprotection against glutamate-induced cell death in CHO cells assessed as increase in cell viability by colorimetric assay; format: functional, cell-based; conditions: Cricetulus griseus
[6] = molecular target: 5-hydroxytryptamine receptor 1B (Homo sapiens) (UniProt P28222)
[7] = molecular target: 5-hydroxytryptamine receptor 2B (Homo sapiens) (UniProt P41595)
[8] = molecular target: 5-hydroxytryptamine receptor 2B (Homo sapiens) (UniProt P41595); remark: listed apart in the source
[9] = molecular target: 5-hydroxytryptamine receptor 1B (Homo sapiens) (UniProt P28222); remark: listed apart in the source
[10] = molecular target: Metabotropic glutamate receptor 5 (Homo sapiens, UniProt P41594); experiment: Agonist activity at mGlu5 receptor (unknown origin) expressed in CHO cells assessed as increase in Gq-mediated PI hydrolysis after 45 mins by yttrium scintillation proximity assay; format: cell-based
[11] = molecular target: T3, Glucagon-like peptide 1 receptor (Homo sapiens, UniProt P43220); experiment: Agonist activity at Rluc8 fused human GLP1 receptor expressed in HEK293 cells assessed co-expressing GFP-tagged beta-arrestin1 assessed as increase in beta-arrestin1 recruitment after 20 to 40 mins by BRET assay; format: cell-based
[12] = molecular target: T3, Glucagon-like peptide 1 receptor; experiment: Agonist activity at Rluc8 fused human GLP1 receptor expressed in HEK293 cells assessed co-expressing GFP-tagged beta-arrestin2 assessed as increase in beta-arrestin2 recruitment after 20 to 40 mins by BRET assay; format: cell-based
[13] = molecular target: T3, Glucagon-like peptide 1 receptor; experiment: Agonist activity at human GLP1 receptor expressed in HEK293 cells assessed as increase in cAMP accumulation after 24 hrs by luciferase reporter gene assay; format: functional, cell-based

T3 sequence (P43220 whole entry, the tested form may be a part): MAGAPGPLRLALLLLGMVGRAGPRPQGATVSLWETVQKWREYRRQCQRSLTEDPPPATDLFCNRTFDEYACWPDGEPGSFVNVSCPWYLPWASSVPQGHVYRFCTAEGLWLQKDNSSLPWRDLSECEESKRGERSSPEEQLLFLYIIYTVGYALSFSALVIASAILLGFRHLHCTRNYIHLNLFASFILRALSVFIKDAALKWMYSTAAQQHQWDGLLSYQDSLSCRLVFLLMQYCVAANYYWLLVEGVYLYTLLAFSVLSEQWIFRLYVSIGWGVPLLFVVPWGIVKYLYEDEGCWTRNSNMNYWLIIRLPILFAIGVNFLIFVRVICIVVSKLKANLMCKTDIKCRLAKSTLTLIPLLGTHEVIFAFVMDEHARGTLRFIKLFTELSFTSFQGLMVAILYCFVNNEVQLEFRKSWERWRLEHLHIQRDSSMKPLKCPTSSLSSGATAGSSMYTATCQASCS
Chain of 5-hydroxytryptamine receptor 2B (Homo sapiens) (P41595 whole entry): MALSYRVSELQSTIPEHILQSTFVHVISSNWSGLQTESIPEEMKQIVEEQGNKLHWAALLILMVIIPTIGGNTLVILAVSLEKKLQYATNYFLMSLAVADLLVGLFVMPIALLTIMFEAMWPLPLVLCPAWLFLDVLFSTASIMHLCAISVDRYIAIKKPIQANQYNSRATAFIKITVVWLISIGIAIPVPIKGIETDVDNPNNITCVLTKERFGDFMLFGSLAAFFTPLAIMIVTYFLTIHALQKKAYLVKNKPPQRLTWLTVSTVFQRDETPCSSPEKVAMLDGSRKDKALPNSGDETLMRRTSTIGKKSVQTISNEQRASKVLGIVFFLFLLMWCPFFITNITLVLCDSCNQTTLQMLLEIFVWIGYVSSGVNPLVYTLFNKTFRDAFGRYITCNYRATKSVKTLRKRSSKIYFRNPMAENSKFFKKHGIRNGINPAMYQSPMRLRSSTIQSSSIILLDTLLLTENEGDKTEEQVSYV
Chain of 5-hydroxytryptamine receptor 1B (Homo sapiens) (P28222 whole entry): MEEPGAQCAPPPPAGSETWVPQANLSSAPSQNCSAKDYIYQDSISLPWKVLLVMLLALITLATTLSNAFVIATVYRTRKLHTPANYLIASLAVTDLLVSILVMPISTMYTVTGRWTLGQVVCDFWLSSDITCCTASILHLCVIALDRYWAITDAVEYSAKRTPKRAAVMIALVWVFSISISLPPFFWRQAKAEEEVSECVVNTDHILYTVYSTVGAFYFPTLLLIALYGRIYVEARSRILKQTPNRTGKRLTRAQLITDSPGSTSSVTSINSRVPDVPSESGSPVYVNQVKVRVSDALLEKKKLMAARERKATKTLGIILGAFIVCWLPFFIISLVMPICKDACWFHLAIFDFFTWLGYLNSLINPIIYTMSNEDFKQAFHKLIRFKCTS
Chain of Metabotropic glutamate receptor 5 (Homo sapiens, UniProt P41594) (P41594 whole entry, the tested form may be a part): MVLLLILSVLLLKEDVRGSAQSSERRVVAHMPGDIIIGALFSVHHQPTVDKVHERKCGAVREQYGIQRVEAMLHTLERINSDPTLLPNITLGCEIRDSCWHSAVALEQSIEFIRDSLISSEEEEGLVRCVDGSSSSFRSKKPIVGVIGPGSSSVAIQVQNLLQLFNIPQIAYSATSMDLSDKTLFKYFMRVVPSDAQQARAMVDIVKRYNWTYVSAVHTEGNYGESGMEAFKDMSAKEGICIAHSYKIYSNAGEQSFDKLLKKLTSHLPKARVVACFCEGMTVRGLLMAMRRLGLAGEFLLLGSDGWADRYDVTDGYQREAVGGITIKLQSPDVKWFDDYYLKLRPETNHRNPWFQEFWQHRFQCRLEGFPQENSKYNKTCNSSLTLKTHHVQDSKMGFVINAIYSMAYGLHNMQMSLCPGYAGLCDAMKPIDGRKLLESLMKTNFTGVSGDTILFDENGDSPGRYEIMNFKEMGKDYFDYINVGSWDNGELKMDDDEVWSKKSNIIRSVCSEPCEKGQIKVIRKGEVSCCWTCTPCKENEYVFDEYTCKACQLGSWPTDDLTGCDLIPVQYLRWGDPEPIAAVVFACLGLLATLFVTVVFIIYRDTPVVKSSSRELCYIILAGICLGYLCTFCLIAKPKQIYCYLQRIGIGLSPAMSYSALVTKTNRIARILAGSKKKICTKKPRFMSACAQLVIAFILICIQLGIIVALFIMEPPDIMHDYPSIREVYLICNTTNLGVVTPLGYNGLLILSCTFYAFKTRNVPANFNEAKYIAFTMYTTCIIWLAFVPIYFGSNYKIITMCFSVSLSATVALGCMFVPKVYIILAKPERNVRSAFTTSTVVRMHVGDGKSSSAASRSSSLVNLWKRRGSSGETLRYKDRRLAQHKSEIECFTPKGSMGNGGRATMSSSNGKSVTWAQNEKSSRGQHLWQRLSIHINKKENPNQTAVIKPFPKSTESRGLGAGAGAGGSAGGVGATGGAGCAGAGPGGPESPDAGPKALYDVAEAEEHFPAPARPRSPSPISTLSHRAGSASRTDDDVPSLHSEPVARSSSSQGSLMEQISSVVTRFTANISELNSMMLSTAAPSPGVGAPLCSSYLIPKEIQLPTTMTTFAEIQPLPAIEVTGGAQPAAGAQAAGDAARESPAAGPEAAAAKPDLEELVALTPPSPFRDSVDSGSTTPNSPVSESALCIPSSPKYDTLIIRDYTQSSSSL
Chain of Metabotropic glutamate receptor 5 (Rattus norvegicus, UniProt P31424) (P31424 whole entry): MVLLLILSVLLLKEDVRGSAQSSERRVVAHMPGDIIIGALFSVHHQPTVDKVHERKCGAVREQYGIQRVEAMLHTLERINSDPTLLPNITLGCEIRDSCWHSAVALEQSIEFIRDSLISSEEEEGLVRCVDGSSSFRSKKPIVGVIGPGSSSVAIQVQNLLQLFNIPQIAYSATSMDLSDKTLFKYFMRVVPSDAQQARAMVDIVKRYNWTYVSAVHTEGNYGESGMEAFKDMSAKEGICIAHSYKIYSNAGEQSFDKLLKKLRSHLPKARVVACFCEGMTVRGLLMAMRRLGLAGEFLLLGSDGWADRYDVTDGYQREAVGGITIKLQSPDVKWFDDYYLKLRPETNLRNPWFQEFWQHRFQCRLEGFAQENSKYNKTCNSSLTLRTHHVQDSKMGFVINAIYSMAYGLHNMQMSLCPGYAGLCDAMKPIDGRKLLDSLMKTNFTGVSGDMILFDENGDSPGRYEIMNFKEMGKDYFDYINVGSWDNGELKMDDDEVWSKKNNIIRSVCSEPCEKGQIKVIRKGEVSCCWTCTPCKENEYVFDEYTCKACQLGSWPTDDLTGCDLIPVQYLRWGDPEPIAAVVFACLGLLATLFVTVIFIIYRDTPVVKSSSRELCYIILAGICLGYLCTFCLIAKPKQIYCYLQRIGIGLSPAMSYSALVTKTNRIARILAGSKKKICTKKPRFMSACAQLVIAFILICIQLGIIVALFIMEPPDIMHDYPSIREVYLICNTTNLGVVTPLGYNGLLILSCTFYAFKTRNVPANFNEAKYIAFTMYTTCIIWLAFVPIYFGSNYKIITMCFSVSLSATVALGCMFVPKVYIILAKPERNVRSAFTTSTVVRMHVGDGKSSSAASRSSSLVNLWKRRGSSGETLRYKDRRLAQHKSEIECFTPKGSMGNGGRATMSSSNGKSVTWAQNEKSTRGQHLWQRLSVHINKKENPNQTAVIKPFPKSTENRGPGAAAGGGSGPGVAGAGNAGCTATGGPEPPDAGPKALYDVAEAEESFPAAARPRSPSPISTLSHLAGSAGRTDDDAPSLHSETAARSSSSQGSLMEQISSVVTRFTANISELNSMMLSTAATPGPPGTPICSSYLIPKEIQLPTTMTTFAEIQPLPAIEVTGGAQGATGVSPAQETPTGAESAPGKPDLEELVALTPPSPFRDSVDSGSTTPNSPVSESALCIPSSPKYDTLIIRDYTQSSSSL

O=C(c1ccc(F)cc1)N1CCc2nc(COc3ccccc3)oc2C1
EC50 [1]: 0.235 µM

CC[C@H](C)[C@H](NC(=O)[C@@H](NC(=O)[C@H](CCCNC(=N)N)NC(=O)CNC)C(C)C)C(=O)N[C@@H](CCCCN)CN[C@@H](Cc1cnc[nH]1)C(=O)N1CCC[C@H]1C(=O)N[C@H](C)C(=O)O (H-[Sar]RVI-X1)
EC50 [2]: 0.017 µM

CSCC[C@H](NC(=O)[C@@H]1CCCN1C(=O)CNC(=O)[C@H](CCCCN)NC(=O)[C@H](Cc1cnc[nH]1)NC(=O)[C@@H]1CSSC[C@H](N)C(=O)N[C@@H](CCCNC(=N)N)C(=O)N2CCC[C@H]2C(=O)N[C@@H](CCCNC(=N)N)C(=O)N[C@@H](CC(C)C)C(=O)N1)C(=O)N1CCC[C@H]1C(=O)N[C@@H](Cc1ccccc1)C(=O)O (H-CRPRLCHKGPMPF-OH; disulfide 1-6)
EC50 (Apelin receptor [3]): 2.14 µM
EC50 (Apelin receptor [4]): 0.000288 µM
EC50 (Apelin receptor [5]): 0.692 µM

N[C@@H](CCC(=O)O)C(=O)O [GLUTAMIC ACID]
EC50 (CHO): 153 µM

CN1C[C@H](C(=O)N[C@]2(C)O[C@@]3(O)[C@@H]4CCCN4C(=O)[C@H](Cc4ccccc4)N3C2=O)C=C2c3cccc4[nH]cc(c34)C[C@H]21
log(Tau/KA) [6]: 8.53
log(Tau/KA) [7]: 7.05
log(Tau/KA) [8]: 5.95
log(Tau/KA) [9]: 7.82

N[C@@H](Cn1oc(=O)[nH]c1=O)C(=O)O [QUISQUALATE]
EC50 [10]: 0.63 µM

CC[C@H](C)[C@H](NC(=O)[C@H](Cc1ccccc1)NC(=O)[C@H](CCC(=O)O)NC(=O)[C@H]1CCC[C@@H]1NC(=O)[C@H](C)NC(=O)[C@H](C)NC(=O)[C@H](CCC(N)=O)NC(=O)[C@H]1CCC[C@@H]1NC(=O)[C@H](CCC(=O)O)NC(=O)[C@H](CC(C)C)NC(=O)[C@H](Cc1ccc(O)cc1)NC(=O)[C@H]1CCC[C@@H]1NC(=O)[C@H](CO)NC(=O)[C@@H](NC(=O)[C@H](CC(=O)O)NC(=O)[C@H](CO)NC(=O)[C@@H](NC(=O)[C@H](Cc1ccccc1)NC(=O)[C@@H](NC(=O)CNC(=O)[C@H](CCC(=O)O)NC(=O)[C@H](C)NC(=O)[C@@H](N)Cc1cnc[nH]1)[C@@H](C)O)[C@@H](C)O)C(C)C)C(=O)N[C@@H](C)C(=O)N[C@@H](Cc1c[nH]c2ccccc12)C(=O)N[C@@H](CC(C)C)C(=O)N[C@H](C(=O)N[C@@H](CCCCN)C(=O)NCC(=O)N[C@@H](CCCNC(=N)N)C(=O)NCC(N)=O)C(C)C
EC50 [11]: 0.02 µM
EC50 [12]: 0.01 µM
EC50 [13]: 0.001 µM
